Data on 2 compounds can be found in US4219668A, “4-Hydroxy,4-biphenylbutyric acid” (American Cyanamid Company, priority 1979, dated 1980).

In assay [1] the test system is platelet aggregation (collagen-induced, platelet rich plasma). The assay can be described thus: Inhibition of collagen-induced platelet aggregation ex vivo after oral administration to male rats. The assay is classed as in vivo. The settings on record: rats bled after one to 2 hours, collagen 500 mcg./ml. The method, then: The compounds were administered orally to male rats in various concentrations. After one to 2 hours the rats were bled and platelet rich plasma obtained. Collagen was added at a concentration of 500 mcg./ml. to induce platelet aggregation and comparisons were made between control and treated samples. The percent inhibition of aggregation produced by the test compound was recorded.

Assay [2] relates to carrageenin-induced edema. The assay can be described thus: Acute anti-inflammatory activity, carrageenin-induced paw edema. The assay is classed as in vivo, Royal Hart, Wistar strain rats. The following applies: 250 mg./kg. by gavage; 5 hours after drug, 4 hours after carrageenin; edema of control animals/edema of treated animals; >1.41 considered active. The method, then: In determining the acute anti-inflammatory activity, Royal Hart, Wistar strain rats ranging in weight from 80 to 90 grams were used. The rats were fasted overnight prior to dosing but had free access to water. The compounds were administered in aqueous suspension, by gavage, in a column of 1.7 ml. per 50 g. of rat [corresponds to the hydration volume used by Winter, et al., Proc. Soc. Exp. Biol. and Med. 111, 544-547 (1962)].
The phlogistic agent used was carrageenin prepared as a sterile 1% suspension in 0.9% aqueous sodium chloride for routine testing. A volume of 0.05 ml. was injected through a 26 gauge needle into the plantar tissue of the right hind paw. Measurements were made 5 hours after drug administration (4 hours after carrageenin challenge).
Volumes of both the normal and carrageenin inflamed feet were determined. The difference between the two measurements is considered to be the increased edema due to the carrageenin administration. Results are expressed as a C/T efficacy ratio (edema of control animals/edema of treated animals) and a C/T ratio of greater than 1.41 is considered active.
A general note: In the carrageenan paw model, swelling and tenderness develop within hours.

The test system of assay [3] is ultraviolet induced erythema. The assay can be described thus: Ultraviolet induced erythema in guinea pigs. Format: in vivo, Albino guinea pigs. The following applies: maximum score 3.0. The method, then: Another method of determining a drug effect on conditions which result in inflammation is by measuring the effect on ultraviolet induced erythema in guinea pigs. Albino guinea pigs were depilitated on their flanks, the evening before testing, with a standard mixture of barium sulfide and gum acacia. On the morning of the test, groups of 4 guinea pigs were dosed by gavage one hour prior (-1 hour) to ultraviolet exposure. At 0 hour they were restrained in a plastic container which allows exposure of 3 circular spots. They were then exposed to ultraviolet irradiation from a "Hanovia" Kromayer lamp, model 10, for 60 seconds. At one and four hours, the degree of erythema for each of the three sites was assessed according to the following scoring system: 0=no erythema, 0.5=incomplete circle or faint erythema and 1.0=[…] circle of distinct erythema. Thus, the maximum score for each animal was 3.0.

The subject of assay [4] is respiratory depression associated with platelet aggregation and thrombosis induced by arachidonic acid. The experiment in a line: Inhibition of arachidonic acid-induced respiratory depression in mice. The assay is classed as in vivo. The settings on record: arachidonic acid 50 mg./kg. i.v. two hours later. The method, then: In a second test the in vivo activity is determined in mice. […] Mice were treated orally by gastric lavage with the test compounds in a starch suspension at various dosage levels. Two hours later a challenge dose of arachidonic acid was given to the mice intravenously at a concentration of 50 mg./kg. The period of respiratory distress for each animal was recorded in seconds by observation. The results of a typical compound of this invention appear in Table II in terms of percent inhibition in comparison with controls.

Assay [5] concerns adjuvant induced arthritis (Freund's adjuvant). The experiment in a line: Chronic inflammation, adjuvant induced arthritis. The assay is classed as in vivo, Royal Hart, Wistar strain rats. The following applies: 50 mg./kg. oral once daily, days 0 through 13. The method, then:
In a second test the activity against chronic inflammation in adjuvant induced arthritis was determined. Groups of 3 Royal Hart, Wistar strain rats, weighing 200±10 g. each were injected intradermally in the right hind paw with Freund's adjuvant (dried human tubercle bacilli in a mineral oil vehicle) at a dose of 2 mg./kg. of body weight. Test compounds were administered orally in a 1.5% starch vehicle at 50 mg./kg. of body weight once daily on days 0 through 13 post challenge. Control rats were treated in a similar manner, but given only starch vehicle. On the 14th day post challenge the diameter of the injected paw (primary lesion) was measured by micrometer caliper. The volume of inflamed paws was estimated from these measurements and the results are expressed as percent inhibition of swelling as compared to controls. At the same time, the other inflamed sites, such as ears, paws and tail (secondary lesions) were observed and each rat was graded as to the degree of inflammation and swelling present. The grading is based on a scale of 0 to 24, where 0 represents a complete absence of induced arthritic nodules and 24 represents the maximum degree of inflammation. The mean grade for each treated group is calculated and the effects of each compound are expressed as percent inhibition of the control grade. Table IV records the results of this test on a typical compound of this invention.

For assay [6] the following is noted: British Pat. No. 1,390,091; cited from earlier work.
In assay [7] the test system is aggregation of thromocytes. The settings on record: British Pat. No. 1,390,091; cited from earlier work.
Where [8] appears, read: 62.5 mg./kg. by gavage 1 hour prior to UV, 4 animals.
The mark [9] stands for this setting: 125 mg./kg. by gavage 1 hour prior to UV, 4 animals.
[10] abbreviates: 250 mg./kg. by gavage 1 hour prior to UV, 8 animals.

On to `O=C(O)CCC(O)c1ccc(-c2ccccc2)cc1` (stereo not drawn) [γ-Hydroxy-4-biphenylbutyric acid], for which the “% Inhibition (platelet aggregation)” value in assay [1] (10 mg./kg. oral) worked out at 25%; in assay [1] (25 mg./kg. oral), 25%; in assay [1] (50 mg./kg. oral) it was 19%. Moreover, the “C/T Edema Ratio” value in assay [2] is reported as 2.0. The “Score (avg.) 1 hour” value in assay [3] (setting [8]) was 0; in assay [3] (setting [9]), 0.4; in assay [3] (setting [10]) it was 0. In addition, the “Score (avg.) 4 hour” value in assay [3] (setting [8]) came to 2.1; in assay [3] (setting [9]) it was 2.9; in assay [3] (setting [10]) it was 2.0. Moreover, the “% Inhibition (period of respiratory distress)” value in assay [4] (1 mg./kg. oral) was found to be 46%; in assay [4] (10 mg./kg. oral), 51%; in assay [4] (25 mg./kg. oral) it was 66%; in assay [4] (50 mg./kg. oral) it was 63%. The “% Inhibition of Swelling (primary lesion)” value in assay [5] (14th day post challenge, injected paw) amounted to 51%. The “% Inhibition of Control grade (secondary lesion)” value in assay [5] (14th day, grade scale 0 to 24) is 30%.

For the compound `O=C1CCC(c2ccc(-c3ccccc3)cc2)O1` (stereo not drawn) [5-(4-biphenylyl)-2-hydro-2-(3H)-furanone], in assay [6], the “activity as indicated (antiphlogistic)” value is given as “antiphlogistic”. The “activity as indicated (aggregation of thromocytes)” value in assay [7] is “inhibitory”.
